Experimental data: PubChem BioAssay (NCI)
Where “and” joins values, the source holds several entries; their conditions need not be identical. Equal entries are not always repeated.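 All cell lines were grown in 96-well plates and treated with compound for 48 hours. GI50: concentration for 50% inhibition of growth. The concentration for full growth arrest is given as TGI.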

Columns and labels:
Assay in all cases: inhibition of tumour cell growth, NCI panel, 48 h; in the data active = GI50 below about 0.43 µM; inactive = the rest
NCI-H522 lung = system: NCI-H522 lung
DMS 114 small cell lung = system: DMS 114 small cell lung
COLO 205 colon = system: COLO 205 colon
A498 renal = system: A498 renal
U251 CNS = system: U251 CNS
A549 NSCLC = system: A549 NSCLC
RPMI-8226 leukemia = system: RPMI-8226 leukemia
NCI-H226 lung = system: NCI-H226 lung
HT29 colon = system: HT29 colon
HL-60(TB) leukemia = system: HL-60(TB) leukemia
LOX IMVI melanoma = system: LOX IMVI melanoma
KM12 colon = system: KM12 colon
SK-OV-3 ovarian = system: SK-OV-3 ovarian
CAKI-1 renal = system: CAKI-1 renal
SN12C renal = system: SN12C renal
HCC-2998 colon = system: HCC-2998 colon
ACHN renal = system: ACHN renal
KM20L2 colon = system: KM20L2 colon
M14 melanoma = system: M14 melanoma
HOP-18 NSCLC = system: HOP-18 NSCLC
SNB-75 CNS = system: SNB-75 CNS
OVCAR-4 ovarian = system: OVCAR-4 ovarian
SF-295 CNS = system: SF-295 CNS
SF-268 CNS = system: SF-268 CNS
OVCAR-3 ovarian = system: OVCAR-3 ovarian
IGROV1 ovarian = system: IGROV1 ovarian
MALME-3M melanoma = system: MALME-3M melanoma
UACC-257 melanoma = system: UACC-257 melanoma
HOP-62 NSCLC = system: HOP-62 NSCLC
SK-MEL-5 melanoma = system: SK-MEL-5 melanoma
UACC-62 melanoma = system: UACC-62 melanoma
HOP-92 NSCLC = system: HOP-92 NSCLC
MOLT-4 leukemia = system: MOLT-4 leukemia
LXFL 529 NSCLC = system: LXFL 529 NSCLC
K-562 leukemia = system: K-562 leukemia
NCI-H460 lung = system: NCI-H460 lung
RXF-631 renal = system: RXF-631 renal
SR leukemia = system: SR leukemia
SF-539 CNS = system: SF-539 CNS
RXF 393 renal = system: RXF 393 renal
OVCAR-8 ovarian = system: OVCAR-8 ovarian
DLD-1 colon = system: DLD-1 colon
XF 498 CNS = system: XF 498 CNS
786-0 renal = system: 786-0 renal
SNB-19 CNS = system: SNB-19 CNS
DMS 273 small cell lung = system: DMS 273 small cell lung
EKVX NSCLC = system: EKVX NSCLC
M19-MEL melanoma = system: M19-MEL melanoma
SK-MEL-28 melanoma = system: SK-MEL-28 melanoma
TK-10 renal = system: TK-10 renal
UO-31 renal = system: UO-31 renal
SW-620 colon = system: SW-620 colon
HCT-116 colon = system: HCT-116 colon
NCI-H23 lung = system: NCI-H23 lung
OVCAR-5 ovarian = system: OVCAR-5 ovarian
MDA-MB-231 breast = system: MDA-MB-231 breast
HS 578T breast = system: HS 578T breast
MDA-N = system: MDA-N
SNB-78 CNS = system: SNB-78 CNS
DU-145 prostate = system: DU-145 prostate
BT-549 breast = system: BT-549 breast
MDA-MB-435 = system: MDA-MB-435
CCRF-CEM leukemia = system: CCRF-CEM leukemia
T-47D breast = system: T-47D breast
SK-MEL-2 melanoma = system: SK-MEL-2 melanoma
HCT-15 colon = system: HCT-15 colon

O=C(COC(=O)c1cccc2c(=O)c3ccccc3[nH]c12)Nc1ccccc1
99000 nM: TGI (RXF-631 renal)
42700 nM: TGI (SK-MEL-5 melanoma)
65400 nM: TGI (UO-31 renal)
> 100000 nM: TGI (A498 renal) | TGI (U251 CNS) | TGI (A549 NSCLC) | TGI (NCI-H226 lung) | TGI (HT29 colon) | TGI (SK-OV-3 ovarian) | TGI (CAKI-1 renal) | TGI (SN12C renal) | TGI (HCC-2998 colon) | TGI (ACHN renal) | TGI (KM20L2 colon) | TGI (M14 melanoma) | TGI (HOP-18 NSCLC) | TGI (SNB-75 CNS) | TGI (OVCAR-4 ovarian) | TGI (SF-295 CNS) | TGI (SF-268 CNS) | TGI (OVCAR-3 ovarian) | TGI (IGROV1 ovarian) | TGI (MALME-3M melanoma) | TGI (UACC-257 melanoma) | TGI (HOP-62 NSCLC) | TGI (HOP-92 NSCLC) | TGI (LXFL 529 NSCLC) | TGI (K-562 leukemia) | TGI (NCI-H460 lung) | TGI (SF-539 CNS) | TGI (OVCAR-8 ovarian) | TGI (DLD-1 colon) | TGI (786-0 renal) | TGI (SNB-19 CNS) | TGI (DMS 273 small cell lung) | TGI (EKVX NSCLC) | TGI (M19-MEL melanoma) | TGI (SK-MEL-28 melanoma) | TGI (TK-10 renal) | TGI (SW-620 colon)
83500 nM: TGI (RPMI-8226 leukemia)
88700 nM: TGI (HCT-116 colon)
54100 nM: TGI (KM12 colon)
74400 nM: TGI (XF 498 CNS)
73200 nM: TGI (LOX IMVI melanoma)
68000 nM: TGI (UACC-62 melanoma)
51600 nM: TGI (COLO 205 colon)
36100 nM: TGI (HL-60(TB) leukemia)
54300 nM: TGI (SR leukemia)
73400 nM: TGI (NCI-H522 lung)
43800 nM: TGI (MOLT-4 leukemia)
59300 nM: TGI (DMS 114 small cell lung)
58900 nM: TGI (NCI-H23 lung)
97900 nM: TGI (RXF 393 renal)

Cc1cc2c(c3oc(C4(C)OC4C4OC4C)cc(=O)c13)C(=O)c1c(O)c(C3CC(C)(N(C)C)C(O)C(C)O3)cc(C3CC(N(C)C)C(O)C(C)O3)c1C2=O (stereo not drawn)
3.12 nM and 0.772 nM: TGI (UACC-257 melanoma)
49.9 nM and 41 nM: TGI (CCRF-CEM leukemia)
0.154 nM and 1.2 nM: TGI (SF-295 CNS)
active: GI50 (A498 renal) 0.57 nM | GI50 (HS 578T breast) 1.58 nM | GI50 (HT29 colon) 2.5 nM | GI50 (LOX IMVI melanoma) 0.175 nM | GI50 (KM12 colon) 0.894 nM and 0.134 nM | GI50 (SK-OV-3 ovarian) 2.38 nM | GI50 (CAKI-1 renal) 0.145 nM | GI50 (M14 melanoma) 0.101 nM | GI50 (HOP-92 NSCLC) 0.258 nM | GI50 (MOLT-4 leukemia) 0.0944 nM and 0.106 nM | GI50 (K-562 leukemia) 0.0838 nM and 0.124 nM | GI50 (SNB-78 CNS) 0.187 nM | GI50 (NCI-H460 lung) < 0.01 nM | GI50 (BT-549 breast) 0.234 nM | GI50 (MDA-MB-435) 0.285 nM | GI50 (SF-539 CNS) 0.117 nM | GI50 (RXF 393 renal) < 0.01 nM | GI50 (OVCAR-8 ovarian) 0.731 nM and 0.103 nM | GI50 (DLD-1 colon) 0.17 nM | GI50 (XF 498 CNS) 0.187 nM | GI50 (786-0 renal) 0.463 nM | GI50 (CCRF-CEM leukemia) 0.13 nM | GI50 (TK-10 renal) 0.27 nM | GI50 (UO-31 renal) 6.38 nM | GI50 (T-47D breast) 0.251 nM | GI50 (SW-620 colon) 0.0489 nM and 0.111 nM
0.537 nM and 0.944 nM: TGI (NCI-H226 lung)
0.406 nM and 2.52 nM: TGI (DMS 273 small cell lung)
0.256 nM and 1.29 nM: TGI (MDA-MB-435)
0.547 nM and 1.61 nM: TGI (MDA-MB-231 breast)
0.16 nM and 0.228 nM: TGI (UACC-62 melanoma)
1.4 nM and 0.447 nM: TGI (SK-MEL-5 melanoma)
123 nM: TGI (RXF-631 renal)
71.3 nM and 8.63 nM and 15.8 nM: TGI (SNB-19 CNS)
42.7 nM and 131 nM and 33.7 nM: TGI (HT29 colon)
0.138 nM and 0.556 nM: TGI (DU-145 prostate)
0.0808 nM and 0.153 nM: TGI (ACHN renal)
14.7 nM and 19.2 nM and 34.8 nM: TGI (K-562 leukemia)
0.196 nM and 0.148 nM: TGI (M14 melanoma)
0.228 nM: TGI (MDA-N)
3.51 nM and 14.2 nM and 17.7 nM: TGI (A549 NSCLC)
1.14 nM: TGI (A498 renal)
0.78 nM and 0.929 nM: TGI (EKVX NSCLC)
11.7 nM: TGI (LXFL 529 NSCLC)
14.2 nM and 55.7 nM and 7.25 nM: TGI (RPMI-8226 leukemia)
4.95 nM and 10.2 nM: TGI (SR leukemia)
0.891 nM: TGI (HCC-2998 colon)
0.68 nM: TGI (XF 498 CNS)
14.3 nM and 2.25 nM: TGI (UO-31 renal)
41.9 nM and 4.86 nM: TGI (KM12 colon)
11.6 nM and 50.1 nM: TGI (TK-10 renal)
1.89 nM and 0.224 nM: TGI (LOX IMVI melanoma)
2.77 nM and 0.596 nM: TGI (SK-MEL-28 melanoma)
0.0797 nM and 0.406 nM: TGI (RXF 393 renal)
0.244 nM and 1.11 nM: TGI (OVCAR-5 ovarian)
4.05 nM and 1.87 nM: TGI (HS 578T breast)
3.34 nM: TGI (HOP-18 NSCLC)
0.414 nM and 2.22 nM: TGI (BT-549 breast)

CC[C@@H]1C[C@H]2CC3c4[nH]c5ccc(O)cc5c4CCN(C2)C31
> 100000 nM: TGI (OVCAR-5 ovarian) | TGI (DMS 114 small cell lung) | TGI (COLO 205 colon) | TGI (SK-MEL-2 melanoma) | TGI (U251 CNS) | TGI (A549 NSCLC) | TGI (RPMI-8226 leukemia) | TGI (NCI-H226 lung) | TGI (HT29 colon) | TGI (HL-60(TB) leukemia) | TGI (LOX IMVI melanoma) | TGI (KM12 colon) | TGI (CAKI-1 renal) | TGI (SN12C renal) | TGI (HCC-2998 colon) | TGI (ACHN renal) | TGI (KM20L2 colon) | TGI (M14 melanoma) | TGI (HOP-18 NSCLC) | TGI (SNB-75 CNS) | TGI (SF-295 CNS) | TGI (SF-268 CNS) | TGI (OVCAR-3 ovarian) | TGI (IGROV1 ovarian) | TGI (MALME-3M melanoma) | TGI (UACC-257 melanoma) | TGI (HOP-62 NSCLC) | TGI (UACC-62 melanoma) | TGI (HOP-92 NSCLC) | TGI (MOLT-4 leukemia) | TGI (LXFL 529 NSCLC) | TGI (K-562 leukemia) | TGI (SNB-78 CNS) | TGI (NCI-H460 lung) | TGI (RXF-631 renal) | TGI (SR leukemia) | TGI (SF-539 CNS) | TGI (RXF 393 renal) | TGI (OVCAR-8 ovarian) | TGI (XF 498 CNS) | TGI (786-0 renal) | TGI (SNB-19 CNS) | TGI (HCT-15 colon) | TGI (CCRF-CEM leukemia) | TGI (DMS 273 small cell lung) | TGI (EKVX NSCLC) | TGI (M19-MEL melanoma) | TGI (SK-MEL-28 melanoma) | TGI (TK-10 renal) | TGI (UO-31 renal) | TGI (SW-620 colon) | TGI (HCT-116 colon) | TGI (NCI-H23 lung)
